Results on 16 molecules are retold here after ChEMBL document CHEMBL5150046, “Discovery of a Series of 5-Amide-1H-pyrazole-3-carboxyl Derivatives as Potent P2Y14R Antagonists with Anti-Inflammatory Characters” (J Med Chem, 2022).

For orientation: inhibition means the drop in the measured response relative to a control, in per cent. Read a low inhibition as a response near the control. One may read the IC50 as the concentration that inhibits the measured activity by half. One may read the half-life as how long it takes for the measured level to halve. One may read the solubility as how much of the substance goes into solution per volume. A high value points to much dissolved substance. The term clearance denotes a measure of how efficiently the substance is removed, as volume per time. Higher therefore signals efficient removal. Broadly, the AUC(0-inf) is the area under the concentration-time curve extrapolated to infinity. What is called CL/F is the apparent clearance, not corrected for the fraction that reaches the circulation. As usually defined, the Cmax is the peak of the concentration-time curve. For orientation: bioavailability means dose-corrected exposure relative to a reference, in per cent. Read a low bioavailability as little systemic uptake. The term Tmax denotes the time from dosing to the highest level.

Data set [1] concerns the target T1, P2Y purinoceptor 14 (Homo sapiens) (UniProt Q15391).
T1 sequence (whole entry): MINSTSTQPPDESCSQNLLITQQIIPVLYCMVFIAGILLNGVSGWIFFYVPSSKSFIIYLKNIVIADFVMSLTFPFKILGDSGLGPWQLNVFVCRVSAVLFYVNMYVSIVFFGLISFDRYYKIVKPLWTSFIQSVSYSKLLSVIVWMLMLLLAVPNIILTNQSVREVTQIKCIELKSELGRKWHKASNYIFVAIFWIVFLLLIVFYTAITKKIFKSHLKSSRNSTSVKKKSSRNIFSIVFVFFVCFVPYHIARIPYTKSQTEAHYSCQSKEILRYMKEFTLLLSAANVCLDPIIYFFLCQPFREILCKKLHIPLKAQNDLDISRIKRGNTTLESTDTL

Another data set has as its target T2, P2Y purinoceptor 14 (Homo sapiens, UniProt Q15391).
T2 sequence (Q15391 whole entry): T1 sequence (whole entry)
Description: Antagonist activity at P2Y14R (unknown origin) expressed in HEK293 cells assessed as inhibition of forskolin-stimulated cAMP accumulation incubated in presence of IBMX by cAMP-glo assay. Type of data set: functional, cell-based.

For another data set, the target named is P2Y purinoceptor 6 (Homo sapiens, UniProt Q15077).
Sequence of P2Y purinoceptor 6 (Q15077 whole entry): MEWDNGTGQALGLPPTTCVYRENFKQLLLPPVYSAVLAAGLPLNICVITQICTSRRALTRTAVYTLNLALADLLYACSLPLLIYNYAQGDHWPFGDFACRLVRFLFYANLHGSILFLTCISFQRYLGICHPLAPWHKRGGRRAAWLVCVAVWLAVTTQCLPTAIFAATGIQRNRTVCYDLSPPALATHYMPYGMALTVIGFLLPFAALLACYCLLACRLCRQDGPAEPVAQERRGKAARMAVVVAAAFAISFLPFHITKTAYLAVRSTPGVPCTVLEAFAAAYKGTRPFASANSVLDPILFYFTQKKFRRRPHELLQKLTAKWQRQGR
Another data set concerns the target P2Y purinoceptor 4 (Homo sapiens, UniProt P51582).
The target in a further data set is T3, P2Y purinoceptor 13 (Homo sapiens, UniProt Q9BPV8).
T3 sequence (Q9BPV8 whole entry): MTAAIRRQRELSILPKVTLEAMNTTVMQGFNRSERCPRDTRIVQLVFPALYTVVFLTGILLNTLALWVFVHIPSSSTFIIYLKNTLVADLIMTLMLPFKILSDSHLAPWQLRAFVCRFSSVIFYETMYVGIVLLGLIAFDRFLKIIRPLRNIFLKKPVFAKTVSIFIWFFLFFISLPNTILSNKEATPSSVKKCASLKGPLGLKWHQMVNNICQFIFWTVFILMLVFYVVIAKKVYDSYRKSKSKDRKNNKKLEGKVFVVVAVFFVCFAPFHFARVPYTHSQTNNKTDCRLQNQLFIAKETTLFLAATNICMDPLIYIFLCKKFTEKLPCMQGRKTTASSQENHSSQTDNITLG
Description: Antagonist activity at human P2Y13R expressed in HEK293 cells assessed as inhibition of 2MeSADP-induced cAMP production preincubated for 0.5 hrs followed by 2MeSADP stimulation by cAMP-glo assay. Type of data set: functional, cell-based. (Cyclic AMP is a second messenger, typically raised through Gs and lowered through Gi signalling.)

Data set [2] can be described thus: Half life in Sprague-Dawley rat at 10 mg/kg, po measured for 24 hrs. Type of data set: ADME, organism-based. Particulars: in vivo.
Data set [3] can be described thus: Metabolic stability in rat liver microsomes assessed as half life at 2 ug/ml preincubated for 5 mins followed by NADPH addition and measured upto 45 mins by LC-MS/MS analysis. The settings on record: dose 2 µg/ml, time < 50 min. Type of data set: ADME, Microsome. (Liver microsomes are vesicles of endoplasmic reticulum, rich in cytochrome P450 enzymes.)
The nature of data set [4]: Aqueous solubility of the compound in PBS at pH 7.4 incubated for 24 hrs by UV-3000 absorption spectrometry analysis. Type of data set: physicochemical. The settings on record: buffer, pH 7.4, 24 h.
A short description of data set [5]: Clearance in Sprague-Dawley rat at 2.5 mg/kg, iv measured for 24 hrs. The settings on record: in vivo. Type of data set: ADME, organism-based.
The nature of data set [6]: Metabolic stability in human liver microsomes assessed as half life at 2 ug/ml preincubated for 5 mins followed by NADPH addition and measured upto 45 mins by LC-MS/MS analysis. Type of data set: ADME, Microsome. Particulars: dose 2 µg/ml, time < 50 min.
Data set [7] is described as follows: Aqueous solubility of the compound in double distilled water at pH 7 incubated for 24 hrs by UV-3000 absorption spectrometry analysis. Type of data set: physicochemical. The settings on record: buffer, pH 7, 24 h.
Data set [8] in a line: Metabolic stability in human liver microsomes assessed as elimination rate constant at 2 ug/ml preincubated for 5 mins followed by NADPH addition and measured upto 45 mins by LC-MS/MS analysis. Format: ADME, Microsome. The settings on record: dose 2 µg/ml, time < 50 min.
Data set [9] is described as follows: Aqueous solubility of the compound in simulated gastric fluid without pepsin at pH 1.2 incubated for 24 hrs by UV-3000 absorption spectrometry analysis. Format: physicochemical. The settings on record: simulated gi fluid, pH 1.2, 24 h.
Data set [10] is described as follows: AUC (0 to infinity) in Sprague-Dawley rat at 2.5 mg/kg, iv measured for 24 hrs. Format: ADME, organism-based. Further details: time 24 hrs, dose 2.5 mg/kg, route iv. Particulars: in vivo.
Data set [11] is described as follows: Clearance in Sprague-Dawley rat at 10 mg/kg, po measured for 24 hrs. Format: ADME, organism-based. Particulars: in vivo.
Data set [12] is described as follows: Half life in Sprague-Dawley rat at 2.5 mg/kg, iv measured for 24 hrs. The settings on record: in vivo. Format: ADME, organism-based.
A short description of data set [13]: Metabolic stability in rat liver microsomes assessed as elimination rate constant at 2 ug/ml preincubated for 5 mins followed by NADPH addition and measured upto 45 mins by LC-MS/MS analysis. Format: ADME, Microsome. The settings on record: dose 2 µg/ml, time < 50 min.
Data set [14] is described as follows: Cmax in Sprague-Dawley rat at 10 mg/kg, po measured for 24 hrs. Format: ADME, organism-based. Further details: time 24 hrs, dose 10 mg/kg, route po. Particulars: in vivo.
Data set [15] is described as follows: Oral bioavailability in Sprague-Dawley rat at 10 mg/kg measured for 24 hrs. Type of data set: ADME, organism-based. Particulars: in vivo.
Data set [16] is described as follows: AUC (0 to infinity) in Sprague-Dawley rat at 10 mg/kg, po measured for 24 hrs. Format: ADME, organism-based. Further details: dose 10 mg/kg, time 24 hrs, route po. The settings on record: in vivo.
Data set [17] is described as follows: Tmax in Sprague-Dawley rat at 10 mg/kg, po measured for 24 hrs. Type of data set: ADME, organism-based. Particulars: in vivo.
Data set [18] in a line: Aqueous solubility of the compound in simulated intestinal fluid without trypsin at pH 6.8 incubated for 24 hrs by UV-3000 absorption spectrometry analysis. Format: physicochemical. Particulars: simulated gi fluid, pH 6.8, 24 h.
Setting [19] is: HEK293, filed as antagonist, dose 100.0 nM.

SMILES strings stand for the structures. In brackets after ≈: the same amount, converted by molar mass.

Sequence of P2Y purinoceptor 4 (P51582 whole entry): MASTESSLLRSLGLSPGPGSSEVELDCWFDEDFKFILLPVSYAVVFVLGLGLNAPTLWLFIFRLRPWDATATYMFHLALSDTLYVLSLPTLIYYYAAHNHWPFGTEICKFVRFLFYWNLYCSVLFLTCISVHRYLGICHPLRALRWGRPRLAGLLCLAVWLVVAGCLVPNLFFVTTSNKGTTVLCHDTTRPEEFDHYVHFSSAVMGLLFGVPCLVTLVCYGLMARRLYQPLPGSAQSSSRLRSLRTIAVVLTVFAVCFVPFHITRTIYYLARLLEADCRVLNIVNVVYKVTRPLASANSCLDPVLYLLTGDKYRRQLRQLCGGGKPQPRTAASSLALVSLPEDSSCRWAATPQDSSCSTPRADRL

Molecule `Cc1ccccc1C(=O)Nc1cc(C(=O)O)nn1Cc1ccc(F)cc1` yielded an inhibition in data set [1] (HEK293, dose 100.0 nM) of 28.5%.

On to `CC(=O)c1ccc(C(=O)Nc2cc(C(=O)O)nn2Cc2ccc(F)cc2)cc1`, for which the IC50 on P2Y purinoceptor 14 is 3.81 nM. Moreover, the inhibition in data set [1] (setting [19]) turned out to be 98.2%.

In the case of `Cc1ccc(C(=O)Nc2cc(C(=O)O)nn2Cc2cc(F)cc(F)c2)cc1`, on P2Y purinoceptor 14, the IC50 worked out at 41 nM. This molecule gave an inhibition in [1] (setting [19]) of 79.8%.

With `O=C(Nc1cc(C(=O)O)nn1Cc1ccc(F)cc1)c1cccc(F)c1`, the inhibition in data set [1] (HEK293, dose 100.0 nM) was 25.2%.

The molecule `Cc1ccc(CCC(=O)Nc2cc(C(=O)O)nn2Cc2ccc(F)cc2)cc1` registered an inhibition in data set [1] (HEK293, dose 100.0 nM) of 14.4%.

Consider `S=C=Nc1cccc(NC(=S)NCCCCNC(=S)Nc2cccc(N=C=S)c2)c1`, for which inhibition at P2Y purinoceptor 6 was half-maximal at 39500 nM (IC50).

In data set [1] (setting [19]), `Cc1ccc(C(=O)Nc2cc(C(=O)O)nn2Cc2ccc(F)cc2)cn1` displayed an inhibition of 53.7%.

`Cc1ccc(C(=O)Nc2cc(C(=O)O)nn2Cc2ccc(F)cc2)s1` gave an inhibition in [1] (setting [19]) of 77.9%.

`O=C(C1CC1)N1CCc2cc(Br)c(S(=O)(=O)Nc3ccc(Cl)c(C(F)(F)F)c3)cc21` showed an IC50 at P2Y purinoceptor 4 of 13600 nM.

For `Cc1ccc(C(=O)Nc2cc(C(=O)O)nn2Cc2ccccc2F)cc1`, the IC50 at P2Y purinoceptor 14 is 111 nM. In addition, the inhibition in [1] (setting [19]) stood at 58.5%.

In data set [1] (HEK293, dose 100.0 nM), `O=C(Nc1cc(C(=O)O)nn1Cc1ccc(F)cc1)c1cccnc1` showed an inhibition of 27.4%.

For `Cc1ccc(C(=O)Nc2cc(C(=O)O)nn2Cc2cccc(F)c2)cc1`, the IC50 on P2Y purinoceptor 14 was 5.39 nM. For the same molecule, in [1] (setting [19]), the inhibition was 89%.

With `Cc1ccc(C(=O)Nc2cc(C(=O)O)nn2Cc2ccc(F)cc2)o1`, the inhibition in data set [1] (setting [19]) was 43.6%.

For the molecule `CCCSc1nc(N[C@@H]2C[C@H]2c2ccc(F)c(F)c2)c2nnn([C@@H]3C[C@H](OCCO)[C@@H](O)[C@H]3O)c2n1` [TICAGRELOR], at P2Y purinoceptor 13, the IC50 is 1400 nM.

In turn, `O=C(O)c1cc(NC(=O)c2ccccc2F)n(Cc2ccc(F)cc2)n1` had an inhibition in data set [1] (HEK293, dose 100.0 nM) of 20.1%.

Turning to `Cc1ccc(C(=O)Nc2cc(C(=O)O)nn2Cc2ccc(F)cc2)cc1`, the half-life worked out at 4.57 h in data set [2] and 1.82 h in [12]. For the same molecule, the values for the half-life at 2 ug/ml in [3] and in data set [6] were 2.88 h and 21 h, respectively. Also, the solubility in data set [4] was 318.7 µg/mL (≈ 902 µM); in data set [7] it was 88.5 µg/mL (≈ 250 µM); in [9] it was 85.1 µg/mL (≈ 241 µM); in data set [18], 202.7 µg/mL (≈ 574 µM). The clearance in data set [5] turned out to be 16.3 mL/min/kg. The k el at 0.75 h, 2 ug/ml in [8] was 8.33e-06 s⁻¹; in data set [13], 6.67e-05 s⁻¹. The AUC(0-inf) was 2600 ng·h/mL in data set [10] and 4500 ng·h/mL in [16]. In data set [11], the CL/F stood at 32.5 mL/min/kg. This molecule gave a Cmax in [14] of 1100 ng/mL. Further, the bioavailability in data set [15] is 43.2%. The Tmax in data set [17] is 0.25 h.
